From patent US20240208997A1, “CYCLIC BENZIMIDAZOLE DERIVATIVES AS CGAS INHIBITORS” (Boehringer Ingelheim International GmbH, priority 2022, published 2024)
pIC50: −log10 of the molar value.

Experiments:
cGAS = cGAS (Homo sapiens, UniProt Q8N884); assay: Human cGAS enzyme assay (hcGAS IC50, in vitro), cGAMP formation by RapidFire MS; assay type: biochemical; set-up: HumancGAS (amino acid 1-522) with an N-terminal 6×-His-tag and SUMO-tag; 6xHis (N); SUMO (N); made in house; host or cells: E. coli BL21(DE3) pLysS; conditions: Table 1; 45 bp dsDNA-activated enzyme
Method: 6.1 Method: Human cGAS Enzyme Assay (hcGAS IC50 (In Vitro))
Human cGAS enzyme was incubated in the presence of a 45 base pair double stranded DNA to activate the enzyme and GTP and ATP as substrates. Compound activity was determined by measuring the effect of compounds on the formation of the product of the enzyme reaction, cGAMP, which is measured by a mass spectrometry method.
HumancGAS (amino acid 1-522) with an N-terminal 6×-His-tag and SUMO-tag was expressed in E. coli BL21(DE3) pLysS (Novagen) cells for 16 h at 18° C. Cells were lysed in buffer containing 25 mM Tris (pH 8), 300 mM NaCl, 10 mM imidazole, 10% glycerol, protease inhibitor cocktail (cOmplete™, EDTA-free, Roche) and DNase (5 μg/mL). […] Purified protein was concentrated to 1.7 mg/mL and stored at −80° C.
(§1) Compounds were delivered in 10 mM DMSO solution, serially diluted and transferred to the 384 well assay plate (Greiner #781201) using an Echo acoustic dispenser. Typically, 8 concentrations were used with the highest concentration at 10 μM in the final assay volume followed by ^˜1:5 dilution steps. DMSO concentration was set to 1% in the final assay volume. The 384 well assay plate contained 22 test compounds (column 1-22), and DMSO in column 23 and 24.
After the compound transfer, 15 μL of the enzyme-DNA-working solution (12 nM cGAS, 0.32 μM 45base pair DNA in assay buffer, 10 mM Tris pH 7.5/10 mM KCl/5 mM MgCl2/1 mM DTT) were added to each well from column 1-23 via a MultiDrop Combi dispenser. In column 24, 15 μl of assay buffer without enzyme/DNA were added as a low control.
The plates were then pre-incubated for 60 min at room temperature.
Following that, 10 μL of GTP (ThermoFisher #R0461)-ATP (Promega #V915B) mix in assay buffer were added to the assay plate (columns 1-24, 30 μM final concentration each) using a Multidrop Combi.
The plates were incubated again for 90 min at room temperature.
Following the incubation, the reaction was stopped by 80 μL of 0,1% formic acid in assay buffer containing 5 nM cyclic-di-GMP (Sigma #SML1228) used as internal standard for the mass spectrometry. The total volume/well was 105 μL.
The plates were centrifuged at 4000 rpm, 4° C., for 5 min.
The RapidFire autosampler was coupled to a binary pump (Agilent 1290) and a Triple Quad 6500 (ABSciex, Toronto, Canada). […] Aspiration time: 250 ms; Load time: 3000 ms; Elute time: 3000 ms; Wash volume: 500 μL.
The MS was operated in positive ion mode with HESI ion source, with a source temperature of 550 C, curtain gas=35, gas 1=65, and gas 2=80. Unit mass resolution in SRM mode. The following transitions and MS parameters (DP: declustering potential and CE: collision energy) for cGAMP and DicGMP were determined:
Internal standard: cyclic-di-GMP at 690.1/540, DP=130, CE=30.
The formation of cGAMP was monitored and evaluated as ratio to cyclic-di-GMP.
(§2) Data Evaluation and Calculation:
(§3) For data evaluation and calculation, the measurement of the low control was set as 0% control and the measurement of the high control was set as 100% control. The IC50 values were calculated using the standard 4 parameter logistic regression formula. Calculation: [y=(a−d)/(1+(x/c)^b)+d], a=low value, d=high value; x=conc M; c=1C50 M; b=slope

[1] = test system: IFN induction in cGAMP-stimulated THP1 cells; assay: cGAMP stimulated counter cell assay in THP1-Dual cells (THP1(cGAMP) IC50); assay type: cell-based, human; conditions: Table 1; for pIC50: Homo sapiens, THP-1, counter assay, 10 μM cGAMP stimulation, read-out: THP(cGAMP) IC50; for Ratio THP(cGAMP) IC50/THP(vir) IC50: selectivity for cGAS-inhibition
From the text: 6.2 Method: Human cGAS Cell Assay and cGAMP Stimulated Counter Cell Assay (THP1(vir) IC50 and THP1(cGAMP) IC50)
For the counter assay, cells were stimulated by cGAMP (SigmaAldrich #SML1232) to activate the identical pathway independent and directly downstream of cGAS (measurement of THP1(cGAMP) IC50).
Pathway activity was monitored by measuring the Lucia luciferase activity induced by either DNA stimulated cGAS enzyme activity (measurement of THP1(vir) IC50) or by cGAMP directly (measurement of THP1(cGAMP) IC50, counter assay).
as §1, with “contained […]” for “contained 22”
Cells, cultivated according to manufacturer conditions, were harvested by centrifugation at 300 g/10 min and were then resuspended and diluted to 1.66E5 cells/ml in fresh cell culture medium (RPMI 1640 (Gibco #A10491-01), 10% FCS (Gibco #10500), 1× GlutaMax (Gibco #35050-061), 1× Pen/Strep solution (Gibco #15140-122), 100 μg/ml Normocin (InvivoGen #ant-nr), 100 μg/ml Zeocin (InvivoGen #ant-zn), 10 μg/ml Blasticidin S (Life Technologies #A11139-03)). The baculovirus solution was then added 1:200 (have varied according to virus batch) to the cells (measurement of THP1(vir) IC50).
30 μL of the cell/virus-mix were added to each well of the compound plate from column 1-23 via MultiDrop Combi dispenser (5000 cells/well). In column 24, 30 μl/5000 cells/well without virus were added as a low control.
The plates were then incubated for 18 h at 37° C. in a humidified incubator.
Following that, 15 μL of QuantiLuc detection reagent (InvivoGen #rep-qlcg5) were added to each well using a MultiDrop Combi. Measurement was done immediately after the addition using an EnVision reader (US-luminescence read-mode).
as §2
as §3, with “c=IC50” for “c=1C50”

Sequence of cGAS (Q8N884 whole entry): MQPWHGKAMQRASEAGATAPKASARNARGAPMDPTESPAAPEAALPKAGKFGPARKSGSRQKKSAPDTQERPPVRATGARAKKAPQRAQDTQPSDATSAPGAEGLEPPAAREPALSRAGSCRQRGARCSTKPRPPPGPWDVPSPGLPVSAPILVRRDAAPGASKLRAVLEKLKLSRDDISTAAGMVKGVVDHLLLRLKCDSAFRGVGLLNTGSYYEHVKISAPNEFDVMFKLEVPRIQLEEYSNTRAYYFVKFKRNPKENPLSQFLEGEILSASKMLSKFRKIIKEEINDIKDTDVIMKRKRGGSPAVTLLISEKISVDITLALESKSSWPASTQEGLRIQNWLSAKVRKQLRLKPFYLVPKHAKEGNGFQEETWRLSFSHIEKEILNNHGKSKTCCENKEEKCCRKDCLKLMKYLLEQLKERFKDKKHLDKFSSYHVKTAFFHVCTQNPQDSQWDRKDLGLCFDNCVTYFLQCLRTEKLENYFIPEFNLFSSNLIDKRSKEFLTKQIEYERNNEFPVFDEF

Compound: C[C@H]1CN2CC[C@@H]1n1c(nc3ccccc31)O[C@H]1C[C@@H](C(=O)O)N(C1)c1nc(nc3c1oc1ccccc13)C(F)(F)CCCCC(F)(F)C2=O [Example 1.17]
- pIC50 (cGAS): 8.14
- pIC50 [1]: 5.18
- Ratio THP(cGAMP) IC50/THP(vir) IC50 [1]: 519

Compound: C[C@H]1CN2CC[C@@H]1n1c(nc3ccccc31)O[C@H]1C[C@@H](C(=O)O)N(C1)c1nc(nc3c1oc1ccccc13)CCOCCCC2=O [Example 1.05]
- pIC50 (cGAS): 8.74
- pIC50 [1]: < 5.00
- Ratio THP(cGAMP) IC50/THP(vir) IC50 [1]: >3448

Compound: C[C@@H]1CC(=O)N2CCC(CC2)n2c(nc3ccccc32)O[C@H]2C[C@@H](C(=O)O)N(C2)c2nc(nc3c2oc2ccccc23)CCCO1 [Example 7.01]
- pIC50 (cGAS): 8.06
- pIC50 [1]: 5.46
- Ratio THP(cGAMP) IC50/THP(vir) IC50 [1]: 23

Compound: C[C@H]1CN2CC[C@@H]1n1c(nc3ccccc31)O[C@H]1C[C@@H](C(=O)O)N(C1)c1nc(nc3c1oc1cc(Cl)ccc13)C(F)(F)CCCCCC2=O [Example 1.16]
- pIC50 (cGAS): 8.48
- pIC50 [1]: 4.96
- Ratio THP(cGAMP) IC50/THP(vir) IC50 [1]: 1134

Compound: C[C@H]1CN2CC[C@@H]1n1c(nc3cc(Cl)ccc31)O[C@H]1C[C@@H](C(=O)O)N(C1)c1nc(nc3c1oc1ccccc13)C(F)(F)CCCCCC2=O [Example 1.12]
- pIC50 (cGAS): 8.28
- pIC50 [1]: 5.44
- Ratio THP(cGAMP) IC50/THP(vir) IC50 [1]: 1620

Compound: C[C@H]1CN2CC[C@@H]1n1c(nc3ccccc31)O[C@H]1C[C@@H](C(=O)O)N(C1)c1nc(nc3c1oc1cc(F)ccc13)C(F)(F)CCCCCC2=O [Example 1.14]
- pIC50 (cGAS): 8.39
- pIC50 [1]: 4.74
- Ratio THP(cGAMP) IC50/THP(vir) IC50 [1]: 11920

Compound: O=C(O)[C@@H]1C[C@H]2CN1c1nc(nc3c1oc1ccccc13)COCCCCCC(=O)N1CCC(CC1)n1c(nc3cccc(F)c31)O2 [Example 5.01]
- pIC50 (cGAS): 8.26
- pIC50 [1]: < 5.00
- Ratio THP(cGAMP) IC50/THP(vir) IC50 [1]: >260

Compound: C[C@H]1CN2CC[C@@H]1n1c(nc3ccccc31)O[C@H]1C[C@@H](C(=O)O)N(C1)c1nc(nc3c1oc1ccccc13)CCCCCOC2=O [Example 10.02]
- pIC50 (cGAS): 7.47
- pIC50 [1]: < 5.00
- Ratio THP(cGAMP) IC50/THP(vir) IC50 [1]: >156

Compound: C[C@H]1CN2CC[C@@H]1n1c(nc3ccccc31)O[C@H]1C[C@@H](C(=O)O)N(C1)c1nc(nc3c1oc1ccccc13)CCCCCC2=O [Example 1.19]
- pIC50 (cGAS): 8.42
- pIC50 [1]: 4.96
- Ratio THP(cGAMP) IC50/THP(vir) IC50 [1]: 277

Compound: C[C@H]1CN2CC[C@@H]1n1c(nc3ccccc31)O[C@H]1C[C@@H](C(=O)O)N(C1)c1nc(nc3c1oc1ccccc13)CCCCCN(C)C2=O [Example 13.01]
- pIC50 (cGAS): 7.47
- pIC50 [1]: 5.14
- Ratio THP(cGAMP) IC50/THP(vir) IC50 [1]: 15

Compound: O=C(O)[C@@H]1C[C@H]2CN1c1nc(nc3c1oc1ccccc13)CCOCCCC(=O)N1CCC(CC1)n1c(nc3ccc(F)cc31)O2 [Example 1.04]
- pIC50 (cGAS): 8.35
- pIC50 [1]: < 5.00
- Ratio THP(cGAMP) IC50/THP(vir) IC50 [1]: >229

Compound: C[C@H]1CN2CC[C@@H]1n1c(nc3cc(F)ccc31)O[C@H]1C[C@@H](C(=O)O)N(C1)c1nc(nc3c1oc1cc(F)ccc13)C(F)(F)CCCCCC2=O [Example 1.15]
- pIC50 (cGAS): 8.46
- pIC50 [1]: < 5.00
- Ratio THP(cGAMP) IC50/THP(vir) IC50 [1]: >1408

Compound: C[C@H]1CN2CC[C@@H]1n1c(nc3cc(F)ccc31)O[C@H]1C[C@@H](C(=O)O)N(C1)c1nc(nc3c1oc1ccccc13)C(F)(F)CCCCC(F)(F)C2=O [Example 1.18]
- pIC50 (cGAS): 8.41
- pIC50 [1]: 5.00
- Ratio THP(cGAMP) IC50/THP(vir) IC50 [1]: 270

Compound: C[C@H]1CN2CC[C@@H]1n1c(nc3ccccc31)O[C@H]1C[C@@H](C(=O)O)N(C1)c1nc(nc3c1oc1cc(Cl)ccc13)CCOCCCC2=O [Example 1.07]
- pIC50 (cGAS): 8.42
- pIC50 [1]: < 5.00
- Ratio THP(cGAMP) IC50/THP(vir) IC50 [1]: >1541

Compound: C[C@H]1CN2CC[C@@H]1n1c(nc3ccc(Cl)cc31)O[C@H]1C[C@@H](C(=O)O)N(C1)c1nc(nc3c1oc1ccccc13)CCOCCCC2=O [Example 1.06]
- pIC50 (cGAS): 8.49
- pIC50 [1]: < 5.00
- Ratio THP(cGAMP) IC50/THP(vir) IC50 [1]: >2417

Compound: O=C(O)[C@@H]1C[C@H]2CN1c1nc(nc3c1oc1ccccc13)CCCOCC(=O)N1CCC(CC1)n1c(nc3ccccc31)O2 [Example 9.01]
- pIC50 (cGAS): 8.12
